Data: patent US7015239B2, “Fungicide for plants” (Valent BioSciences, Inc., priority 2003, dated 2006)

Columns and labels:
[1] = system: Phaseolus vulgaris (Bush bean cv. Blue Lake 274) leaves; assay: Detached bean leaf bioassay, phytotoxicity rating; assay type: in vivo
Description: (§1) Detached Bean Leaf Bioassay
(§2) Compound solution: Compound solutions were prepared by diluting compound stock solutions (1.0% w/v compound in DMSO) to 200 ppm with 0.01% w/v Triton X-100.
(§3) Plant material: Middle trifoliate leaves of greenhouse grown Phaseolus vulgaris (Bush bean cv. Blue Lake 274) were excised and placed on a plastic grid above a tray containing moist towels.
Treatment method: One half of the adaxial surface of the leaf was treated with the compound solution (100:L) using a 3 cm Bacti Cell Spreader. A blank consisted of 0.01% w/v Triton X-100. A commercial fungicide control (200 ppm diluted with water) consisted of Scala. After the solutions dried, the trays containing the leaves were covered and held one day in a growth chamber (22 C). The adaxial surfaces of the leaves were then inoculated with 5–60:L droplets of Botrytis cinerea spore solution.
Phytotoxicity ratings: Phytotoxicity was rated as 0=no phytotoxicity, l=slight phytotoxicity, 2=moderate phytotoxicity, or 3=excessive phytotoxicity (Table 2).

[2] = system: Rhizoctonia solani; assay: Contact evaluation (microtiter plate); assay type: cell-based; conditions: Rhizoctinia solani
Description: (§4) Compound solution: Contact evaluations were conducted to determine the anti-fungal activity of each compound against Botrytis cinerea, Sclerotinia sclerotiorum, Pythium aphanidermatum, Rhizoctonia solani, Cercospora arachidicola, Mycosphaerella fijiensis, and Monilinia laxa. Five milligrams of each compound were dissolved in 0.5 milliliter of DMSO for a compound stock solution of 1.0% w/v. Compound stock solutions were serial diluted with DMSO to 20, 10, and 2 ppm final well concentration.
(§5) Fungi preparation: Botrytis cinerea spores were taken from 6-week-old cultures grown at 22C on full strength potato dextrous agar (PDA) plates. Sclerotinia sclerotiorum, Pythium aphanidermatum, Rhizoctonia solani, and Monilinia laxa mycelia were taken from 4- to 10-day-old shake flask cultures grown at room temperature on full strength potato dextrous broth (PDB). Cercospora arachidicola mycelia were taken from 10- to 14-day-old shake flask cultures grown at room temperature on a full strength PDB amended with peanut oil. Mycosphaerella fijiensis mycelia were taken from 10- to 14-day-old shake flask cultures grown at room temperature on V8 juice broth. Sclerotinia sclerotiorum, Pythium aphanidermatum, Rhizoctonia solani, Cercospora arachidicola, and Mycosphaerella fijiensis mycelia (0.4 g mycelia) were blended for 45 seconds in 20 mL sterile de-ionized water. Monilinia laxa mycelia (1 g mycelia) was blended for 45 seconds in 30 mL of sterile de-ionized water. Botrytis cinerea spores were diluted with quarter strength PDB to 1×10^5 spores/mL final well concentration. All mycelia were diluted in water (1:5 mycelia:water) before distributing into the wells.
(§6) Microtiter plate preparation: Compound solution (10:L), quarter strength PDB (900:L) and fungi preparation (100:L) were sequentially distributed into 48-well microtiter plates (n=3 replications/compound/rate). A blank consisted of quarter strength PDB and fungi preparation. Commercial fungicide controls (100 ppm diluted with water) consisted of Scala for Botrytis cinerea, Dithane F-45 for Mycosphaerella fijiensis, and Benlate for Sclerotinia sclerotiorum, Pythium aphanidermatum, Rhizoctonia solani, Cercospora arachidicola, and Monilinia laxa. Plates were shaken in a circular rotator at room temperature for 20 minutes, then incubated at 25 C for 24 to 72 hours, depending on the pathogen.
(§7) Fungal control ratings: Fungal growth in wells containing the compounds were compared to the positive control and fungal inhibition was rated as full, partial, or none. Final readings were the average of the three wells (Table 1).

[3] = system: Sclerotinia sclerotiorum; assay: Contact evaluation (microtiter plate); assay type: cell-based; conditions: Sclerotinia sclerotionum
Description: as §4, §5, §6, §7

[4] = system: Pythium aphanidermatum; assay: Contact evaluation (microtiter plate); assay type: cell-based
Description: as §4, §5, §6, §7

[5] = system: Monilinia laxa; assay: Contact evaluation (microtiter plate); assay type: cell-based
Description: as §4, §5, §6, §7

[6] = system: Botrytis cinerea; assay: Contact evaluation (microtiter plate); assay type: cell-based
Description: as §4, §5, §6, §7

[7] = system: Mycosphaerella fijiensis; assay: Contact evaluation (microtiter plate); assay type: cell-based
Description: as §4, §5, §6, §7

[8] = system: Cercospora arachidicola; assay: Contact evaluation (microtiter plate); assay type: cell-based
Description: as §4, §5, §6, §7

[9] = system: Botrytis cinerea; assay: Detached bean leaf bioassay, fungal control; assay type: in vivo; conditions: three days after inoculation, 100 minus percent necrotic area
Description: as §1, §2
Spore solution preparation: Botrytis cinerea spores were taken from 6-week-old cultures grown at 22 C on full strength potato dextrous agar (PDA) plates and harvested in 1:16 frozen orange juice concentrate:water. Botrytis cinerea spore solutions were prepared by diluting spore cultures to 5×10^4 spores/mL with 1:16 frozen orange juice concentrate:water.
as §3
Treatment method: One half of the adaxial surface of the leaf was treated with the compound solution (100:L) using a 3 cm Bacti Cell Spreader. A blank consisted of 0.01% w/v Triton X-100. A commercial fungicide control (200 ppm diluted with water) consisted of Scala. […]
Fungal control rating: Three days after inoculation with Botrytis, the percent necrotic area under the inoculation droplet was determined. Since the areas under the blank (0.01% w/v Triton X-100) were 100% infected, fungal control was expressed as 100 minus the percent necrotic area, and thus 0% infected is 100% fungal control (n=3 leaves/compound, 5 inoculation droplets/leaf, Table 2).

Cc1ccc(-c2cc(-c3ccc(C)cc3)[n+](-c3ccccc3)c(-c3cccc(C)c3)c2)cc1.[O-][Cl+3]([O-])([O-])O [formula I] was tested, and the “Phytotoxity (200 ppm)” value [1] was “Slight”, the “Control of fungi (full, partial, none)” value ([2]; fungicide rate 2 ppm) was “None” and the “Control of fungi (full, partial, none)” value ([2]; fungicide rate 10 ppm) was “Full”. The “Control of fungi (full, partial, none)” value ([2]; fungicide rate 20 ppm) was “Full”, the “Control of fungi (full, partial, none)” value ([3]; fungicide rate 2 ppm) was “Full” and the “Control of fungi (full, partial, none)” value ([3]; fungicide rate 10 ppm) was “Full”. For the same molecule, the “Control of fungi (full, partial, none)” value ([3]; fungicide rate 20 ppm) was “Full”, the “Control of fungi (full, partial, none)” value ([4]; fungicide rate 2 ppm) was “Full” and the “Control of fungi (full, partial, none)” value ([4]; fungicide rate 10 ppm) was “Full”. The “Control of fungi (full, partial, none)” value ([4]; fungicide rate 20 ppm) was “Full”, the “Control of fungi (full, partial, none)” value ([5]; fungicide rate 2 ppm) was “Full” and the “Control of fungi (full, partial, none)” value ([5]; fungicide rate 10 ppm) was “Full”. For the same molecule, the “Control of fungi (full, partial, none)” value ([5]; fungicide rate 20 ppm) was “Full”, the “Control of fungi (full, partial, none)” value ([6]; fungicide rate 2 ppm) was “Partial” and the “Control of fungi (full, partial, none)” value ([6]; fungicide rate 10 ppm) was “Full”. For the same molecule, the “Control of fungi (full, partial, none)” value ([6]; fungicide rate 20 ppm) was “Full”, the “Control of fungi (full, partial, none)” value ([7]; fungicide rate 2 ppm) was “Full” and the “Control of fungi (full, partial, none)” value ([7]; fungicide rate 10 ppm) was “Full”. The “Control of fungi (full, partial, none)” value ([7]; fungicide rate 20 ppm) was “Full”, the “Control of fungi (full, partial, none)” value ([8]; fungicide rate 2 ppm) was “None” and the “Control of fungi (full, partial, none)” value ([8]; fungicide rate 10 ppm) was “Full”. For the same molecule, the “Control of fungi (full, partial, none)” value ([8]; fungicide rate 20 ppm) was “Full” and the “Botrytis cinerea control (200 ppm)” value [9] was 93%.
